Reference: patent US20240018123A1, “COMPOUND FOR INHIBITING OR DISINTEGRATING ANDROGEN RECEPTOR, AND PHARMACEUTICAL USE THEREOF” (KOREA RESEARCH INSTITUTE OF CHEMICAL TECHNOLOGY, priority 2020, published 2024)

Test system: VCaP cells
Test: Cytotoxicity assessment (Cell-titer-glo cell viability), VCaP
Conditions: read-out: VCaP (CC50); VCaP cells, 6 days of treatment, Cell-titer-glo, vs DMSO

Compound | CC50 [nM]
CC1(C)C(NC(=O)c2ccc(-n3cc(CN4CCN(C(=O)C5CN(c6ccc7nnn(C8CCC(=O)NC8=O)c(=O)c7c6)C5)CC4)nn3)cc2)C(C)(C)C1Oc1ccc(C#N)c(Cl)c1 (stereo not shown) [Example 122, N-((1r,3r)-3-(3-chloro-4-cyanophenoxy)-2,2,4,4-tetramethylcyclobutyl)-4-(4-((4-(1-(3-(2,6-dioxopiperidin-3-yl)-4-oxo-3,4-dihydrobenzo[d][1,2,3]triazin-6-yl)azetidine-3-carbonyl)piperazin-1-yl)methyl)-1H-1,2,3-triazol-1-yl)benzamide] | 18
CC1(C)C(NC(=O)c2ccc(C#CCC3CCN(CC4CCN(C(=O)CNc5ccc6nnn(C7CCC(=O)NC7=O)c(=O)c6c5)CC4)CC3)nc2)C(C)(C)C1Oc1ccc(C#N)c(Cl)c1 (stereo not shown) [Example 128, N-((1r,3r)-3-(3-chloro-4-cyanophenoxy)-2,2,4,4-tetramethylcyclobutyl)-6-(3-(1-((1-((3-(2,6-dioxopiperidin-3-yl)-4-oxo-3,4-dihydrobenzo[d][1,2,3]triazin-6-yl)glycyl)piperidin-4-yl)methyl)piperidin-4-yl)prop-1-yn-1-yl)nicotinamide] | 11
CC1(C)C(NC(=O)c2ccc(C#CCC3CCN(CC4CCN(C(=O)C5CCN(c6ccc7nnn(C8CCC(=O)NC8=O)c(=O)c7c6)CC5)CC4)CC3)nc2)C(C)(C)C1Oc1ccc(C#N)c(Cl)c1 (stereo not shown) [Example 126, N-((1r,3r)-3-(3-chloro-4-cyanophenoxy)-2,2,4,4-tetramethylcyclobutyl)-6-(3-(1-((1-(1-(3-(2,6-dioxopiperidin-3-yl)-4-oxo-3,4-dihydrobenzo[d][1,2,3]triazin-6-yl)piperidine-4-carbonyl)piperidin-4-yl)methyl)piperidin-4-yl)prop-1-yn-1-yl)nicotinamide] | 40
CC1(C)C(NC(=O)c2ccc(C#CC3CCN(C(=O)C4CCN(c5ccc6nnn(C7CCC(=O)NC7=O)c(=O)c6c5)CC4)CC3)cc2)C(C)(C)C1Oc1ccc(C#N)c(Cl)c1 (stereo not shown) [Example 141, N-((1r,3r)-3-(3-chloro-4-cyanophenoxy)-2,2,4,4-tetramethylcyclobutyl)-4-((1-(1-(3-(2,6-dioxopiperidin-3-yl)-4-oxo-3,4-dihydrobenzo[d][1,2,3]triazin-6-yl)piperidine-4-carbonyl)piperidin-4-yl)ethynyl)benzamide] | 11.5
CC1(C)[C@H](NC(=O)c2ccc(N3CCN(CC4CCN(CCNC(=O)C5CN(c6ccc7nnn(C8CCC(=O)NC8=O)c(=O)c7c6)C5)CC4)CC3)cc2)C(C)(C)[C@H]1Oc1ccc(C#N)c(Cl)c1 (stereo partly shown) [Example 69, N-(2-(4-((4-(4-(((1r,3r)-3-(3-chloro-4-cyanophenoxy)-2,2,4,4-tetramethylcyclobutyl)carbamoyl)phenyl)piperazin-1-yl)methyl)piperidin-1-yl)ethyl)-1-(3-(2,6-dioxopiperidin-3-yl)-4-oxo-3,4-dihydrobenzo[d][1,2,3]triazin-6-yl)azetidine-3-carboxamide] | 345
CC1(C)C(NC(=O)c2ccc(C#CC3CCN(CC4CCN(C(=O)C5CN(c6ccc7nnn(C8CCC(=O)NC8=O)c(=O)c7c6)C5)CC4)CC3)cc2)C(C)(C)C1Oc1ccc(C#N)c(Cl)c1 (stereo not shown) [Example 96, N-((1r,3r)-3-(3-chloro-4-cyanophenoxy)-2,2,4,4-tetramethylcyclobutyl)-4-((1-((1-(1-(3-(2,6-dioxopiperidin-3-yl)-4-oxo-3,4-dihydrobenzo[d][1,2,3]triazin-6-yl)azetidine-3-carbonyl)piperidin-4-yl)methyl)piperidin-4-yl)ethynyl)benzamide] | 8.03
CC1(C)C(NC(=O)c2ccc(-n3cc(CCNC(=O)CNc4ccc5nnn(C6CCC(=O)NC6=O)c(=O)c5c4)nn3)cc2)C(C)(C)C1Oc1ccc(C#N)c(Cl)c1 (stereo not shown) [Example 156, N-((1r,3r)-3-(3-chloro-4-cyanophenoxy)-2,2,4,4-tetramethylcyclobutyl)-4-(4-(2-(2-((3-(2,6-dioxopiperidin-3-yl)-4-oxo-3,4-dihydrobenzo[d][1,2,3]triazin-6-yl)amino)acetamido)ethyl)-1H-1,2,3-triazol-1-yl)benzamide] | 936
CC1(C)C(NC(=O)c2ccc(-c3cnn(C4CCN(CC5CCN(C(=O)C6CN(c7ccc8nnn(C9CCC(=O)NC9=O)c(=O)c8c7)C6)CC5)CC4)c3)nc2)C(C)(C)C1Oc1ccc(C#N)c(Cl)c1 (stereo not shown) [Example 114, N-((1r,3r)-3-(3-chloro-4-cyanophenoxy)-2,2,4,4-tetramethylcyclobutyl)-6-(1-(1-((1-(1-(3-(2,6-dioxopiperidin-3-yl)-4-oxo-3,4-dihydrobenzo[d][1,2,3]triazin-6-yl)azetidine-3-carbonyl)piperidin-4-yl)methyl)piperidin-4-yl)-1H-pyrazol-4-yl)nicotinamide] | 14
CC1(C)C(NC(=O)c2ccc(C#CC3CCN(CC4CCN(C(=O)CNc5ccc6nnn(C7CCC(=O)NC7=O)c(=O)c6c5)CC4)CC3)cc2)C(C)(C)C1Oc1ccc(C#N)c(Cl)c1 (stereo not shown) [Example 98, N-((1r,3r)-3-(3-chloro-4-cyanophenoxy)-2,2,4,4-tetramethylcyclobutyl)-4-((1-((1-((3-(2,6-dioxopiperidin-3-yl)-4-oxo-3,4-dihydrobenzo[d][1,2,3]triazin-6-yl)glycyl)piperidin-4-yl)methyl)piperidin-4-yl)ethynyl)benzamide] | 6.72
CC1(C)C(NC(=O)c2ccc(N3CC4CN(CC5CCN(C(=O)COc6ccc7nnn(C8CCC(=O)NC8=O)c(=O)c7c6)CC5)CC4C3)cc2)C(C)(C)C1Oc1ccc(C#N)c(Cl)c1 (stereo not shown) [Example 137, N-((1r,3r)-3-(3-chloro-4-cyanophenoxy)-2,2,4,4-tetramethylcyclobutyl)-4-(5-((1-(2-((3-(2,6-dioxopiperidin-3-yl)-4-oxo-3,4-dihydrobenzo[d][1,2,3]triazin-6-yl)oxy)acetyl)piperidin-4-yl)methyl)hexahydropyrrolo[3,4-c]pyrrol-2(1H)-yl)benzamide] | 94
CC1(C)C(NC(=O)c2ccc(C#CCC3CCN(C4CCN(c5ccc6nnn(C7CCC(=O)NC7=O)c(=O)c6c5)CC4)CC3)cc2)C(C)(C)C1Oc1ccc(C#N)c(Cl)c1 (stereo not shown) [Example 89, N-((1r,3r)-3-(3-chloro-4-cyanophenoxy)-2,2,4,4-tetramethylcyclobutyl)-4-(3-(1 ? (3-(2,6-dioxopiperidin-3-yl)-4-oxo-3,4-dihydrobenzo[d][1,2,3]triazin-6-yl)-[1,4 ? bipiperdin]-4-yl)prop-1-yn-1-yl)benzamide] | 112
CC1(C)C(NC(=O)c2cnc(N3CCN(CC4CCN(C(=O)CNc5ccc6nnn(C7CCC(=O)NC7=O)c(=O)c6c5)CC4)CC3)nc2)C(C)(C)C1Oc1ccc(C#N)c(Cl)c1 (stereo not shown) [Example 147, N-((1r,3r)-3-(3-chloro-4-cyanophenoxy)-2,2,4,4-tetramethylcyclobutyl)-2-(4-((1-((3-(2,6-dioxopiperidin-3-yl)-4-oxo-3,4-dihydrobenzo[d][1,2,3]triazin-6-yl)glycyl)piperidin-4-yl)methyl)piperazin-1-yl)pyrimidine-5-carboxamide] | ~10
CC1(C)C(NC(=O)c2ccc(C#CCC3CCN(CC4CCN(C(=O)C5CN(c6ccc7nnn(C8CCC(=O)NC8=O)c(=O)c7c6)C5)CC4)CC3)nc2)C(C)(C)C1Oc1ccc(C#N)c(Cl)c1 (stereo not shown) [Example 127, N-((1r,3r)-3-(3-chloro-4-cyanophenoxy)-2,2,4,4-tetramethylcyclobutyl)-6-(3-(1-((1-(1-(3-(2,6-dioxopiperidin-3-yl)-4-oxo-3,4-dihydrobenzo[d][1,2,3]triazin-6-yl)azetidine-3-carbonyl)piperidin-4-yl)methyl)piperidin-4-yl)prop-1-yn-1-yl)nicotinamide] | 27
